System: motor and phonic tics of TS
Experiment: Open-label pilot study of safety and efficacy in TS patients
Type: in vivo, human
Design: key to VTSS, Mean / TTS, Mean / GSS, Mean / MTSS, Median / TTS, Median / GSS, Median / MTSS change, Mean / VTSS change, Mean / TTS change, Mean / MTSS change, Median / VTSS change, Median / TTS change, Median: Yale Global Tic Severity Scale (YGTSS) scores
Text: An open-label, pilot study was undertaken 1) to evaluate the safety and tolerability of treatment with deutetrabenazine, and 2) to evaluate the efficacy of deutetrabenazine to suppress the motor and phonic tics of TS. Study Design. Inclusion criteria (at screening, unless otherwise indicated) included: 12 to 18 years of age, inclusive; […] Throughout the study, an independent rater assessed tic severity with the Yale Global Tic Severity Scale (YGTSS) and tic impact with the TS-Clinical Global Impression (TS-CGI) scale. The independent rater will not have knowledge of the subject's clinical care, including medications or reports of adverse events (AEs). Dose regimen. Study drug was available in five dose strengths: 6, 9, 12, 15, and 18 mg, all of which were identical in size, shape, and color (white). […] Subjects then maintained that dose level for the duration of the treatment period. Subjects who were receiving CBIT (Comprehensive Behavioral Intervention for Tics) therapy were permitted to participate as long as therapy had been stable/ongoing for at least 4 weeks before Screening and was expected to be stable for the duration of the trial. Study drug was dosed as follows. All treatment doses were administered with meals. A daily dose of 6 mg was given once a day in the morning, and daily doses of 12 mg and higher were administered twice daily in divided doses, approximately 10 hours apart during the day. The starting dose was deutetrabenazine 6 mg in the AM. The dose of study drug was optionally adjusted weekly in increments of 6 mg/day during the titration period to identify a dose level that suppressed tics and was well tolerated. Dose reductions were in increments of 6 mg/day. In this study, the maximum total daily dose of deutetrabenazine at the Week 5 visit or later was 36 mg (18 mg twice daily [BID]). Titration period (6 weeks). […] Safety evaluations during titration included assessment of vital signs, monitoring for adverse events, and rating scales for depression and suicidal ideation and behavior. In-person study visits were scheduled at Weeks 2 and 4 after initiating therapy and telephone contacts were scheduled for Weeks 1, 3, 5, and 6 after initiating therapy in order to assess tic suppression and adverse events. The YGTSS and TS-CGI were assessed by an independent rater. The Investigator, in consultation with the subject and parent/guardian, determined when an adequate level of tic suppression had been achieved. The dose of deutetrabenazine was increased on a weekly basis until there was adequate suppression of tics, the subject experienced a protocol-defined “clinically significant” AE (defined as an AE that is related to study medication and either (1) moderate or severe in intensity or (2) meets the criteria for a serious adverse event [SAE]), or the maximal allowable dose was reached. Although dose adjustments could made up to and including the Week 5 phone call, if a stable dose was reached before then, the subject continued on that dose for the remainder of the titration period and throughout maintenance dosing. Once adequate suppression of tics had been achieved, the dose of study drug was not increased further. If a subject experienced a “clinically significant” AE that was attributed to study drug, the Investigator used his or her judgment to determine if a dose reduction or suspension was necessary. Dose adjustments were to be made based on all available information, including the subject and parent/guardian reports of AEs and tic suppression, the clinical assessment of safety and efficacy by the Investigator, as well as information from rating scales. At the end of the titration period, the subject's dose was established for the maintenance period. Maintenance period (2 weeks). Subjects continued to receive their maintenance dose over the next 2 weeks, although dose reductions for AEs were allowed. […]

[2H]C([2H])([2H])Oc1cc2c(cc1OC([2H])([2H])[2H])C1CC(=O)C(CC(C)C)CN1CC2 (stereo not drawn) [deutetrabenazine, (RR, SS)-1,3,4,6,7,11b-hexahydro-9,10-di(methoxy-d3)-3-(2-methylpropyl)-2H-benzo[a]quinolizin-2-one]
TS-CGI mean score (Week 8, from a baseline of 4.7, 7 point scale, lower is better): 3.7
GSS, Mean (Wk 2): 59.4
GSS, Median (Wk 2): 57
MTSS, Mean (Wk 2): 15.9
MTSS, Median (Wk 2): 16
TTS, Mean (Wk 2): 29.4
TTS, Median (Wk 2): 28
VTSS, Mean (Wk 2): 13.5
VTSS, Median (Wk 2): 14
GSS, Mean (Wk 4): 51.1
GSS, Median (Wk 4): 51
MTSS, Mean (Wk 4): 14.2
MTSS, Median (Wk 4): 14
TTS, Mean (Wk 4): 26.3
TTS, Median (Wk 4): 27
VTSS, Mean (Wk 4): 12.1
VTSS, Median (Wk 4): 12
GSS, Mean (Wk 8): 45.1
GSS, Median (Wk 8): 47
Impairment, Mean (Wk 8): 22.9
Impairment, Median (Wk 8): 20
MTSS, Mean (Wk 8): 12.0
MTSS, Median (Wk 8): 11
TTS, Mean (Wk 8): 21.2
TTS, Median (Wk 8): 23
VTSS, Mean (Wk 8): 9.2
VTSS, Median (Wk 8): 9
GSS, Mean (Wk 9 (washout)): 51.7
GSS, Median (Wk 9 (washout)): 51
MTSS, Mean (Wk 9 (washout)): 13.9
MTSS, Median (Wk 9 (washout)): 14.5
TTS, Mean (Wk 9 (washout)): 25.6
TTS, Median (Wk 9 (washout)): 26
VTSS, Mean (Wk 9 (washout)): 11.7
VTSS, Median (Wk 9 (washout)): 10.5
PGIC mean improvement (after 8 weeks of treatment, 7-point scale, preliminary): 1.8 points
patients much or very much improved (PGIC) (after 8 weeks of treatment, preliminary): about 75%
motor and vocal tics (FIG. 9) (baseline through week 8): lowered (improved) both motor and vocal tics
GSS change, Mean (Δ B-Wk 2): −7.7
GSS change, Median (Δ B-Wk 2): 0
MTSS change, Mean (Δ B-Wk 2): −1.9
MTSS change, Median (Δ B-Wk 2): 0
TTS change, Mean (Δ B-Wk 2): −2.9
TTS change, Median (Δ B-Wk 2): 0
VTSS change, Mean (Δ B-Wk 2): −1.0
VTSS change, Median (Δ B-Wk 2): 0
GSS change, Mean (Δ B-Wk 9): −14.7
GSS change, Median (Δ B-Wk 9): −10.5
MTSS change, Mean (Δ B-Wk 9): −3.4
MTSS change, Median (Δ B-Wk 9): −3
TTS change, Mean (Δ B-Wk 9): −6.3
TTS change, Median (Δ B-Wk 9): −5
VTSS change, Mean (Δ B-Wk 9): −2.9
VTSS change, Median (Δ B-Wk 9): −2.5
